Data published in ChEMBL document CHEMBL1201862, “PubChem BioAssay data set” (2004).
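Following 48 hours of exposure in 96-well plates, responses at five concentrations were used to interpolate endpoints linearly. GI50 marks 50% less growth.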 Activity calls are given as the source filed them. Cut-off read from the data, not from the text of the source: active = GI50 up to about 1.1 µM and inactive = higher.

Legend:
Test in all cases: NCI tumour cell line growth inhibition, 48 h
[1] = test system: ACHN
[2] = test system: HT-29
[3] = test system: RPMI-8226
[4] = test system: HOP-92
[5] = test system: NCI-H23
[6] = test system: SK-OV-3
[7] = test system: U-251
[8] = test system: OVCAR-5
[9] = test system: NCI-H522
[10] = test system: SF-539
[11] = test system: HCT-116
[12] = test system: OVCAR-8
[13] = test system: K562
[14] = test system: HOP-62
[15] = test system: RXF 393
[16] = test system: UACC-257
[17] = test system: HL-60
[18] = test system: SF-295

Measured: GI50

CC(=O)N/C(=C\c1ccccc1/C=C(\NC(C)=O)c1nc2cc(C)c(C)cc2[nH]1)c1nc2cc(C)c(C)cc2[nH]1
inactive: [1] 14.8 µM | [2] 34.8 µM | [3] 2.04 µM | [4] 8.36 µM | [5] 8.17 µM | [6] 34.4 µM | [7] 6.59 µM | [8] 36.8 µM | [9] 1.73 µM | [10] 19.7 µM | [11] 5.48 µM | [12] 19.2 µM | [13] 28.6 µM | [14] 14.2 µM

C=CCC12CC(=O)CCC1CC(=O)C2 (configuration not stated)
inactive: [1] > 100 µM | [15] > 100 µM | [3] > 100 µM | [16] > 100 µM | [6] > 100 µM | [7] > 100 µM | [17] > 100 µM | [9] > 100 µM | [10] > 100 µM | [11] > 100 µM | [12] > 100 µM | [13] > 100 µM | [14] > 100 µM

CCOC(=O)C1=C(C)N(NC(=O)OC)C2(N)N(NC(=O)OC)C(C)=C(C(=O)OCC)C12C#N (configuration not stated)
inactive: [1] > 100 µM | [2] > 100 µM | [3] > 100 µM | [16] > 100 µM | [6] > 100 µM | [7] > 100 µM | [18] > 100 µM | [17] > 100 µM | [8] > 100 µM | [9] > 100 µM | [10] > 100 µM | [11] > 100 µM | [12] > 100 µM | [13] > 100 µM | [14] > 100 µM

C[C@H](NC(=O)OC1C2C=CC(O)C1CC2)c1ccccc1 (some centres not stated)
inactive: [1] > 100 µM | [2] > 10 µM | [15] > 100 µM | [3] 22.4 µM | [16] > 100 µM | [5] > 100 µM | [6] > 100 µM | [7] > 100 µM | [18] > 100 µM | [17] > 100 µM | [8] > 100 µM | [9] > 100 µM | [10] > 100 µM | [11] > 100 µM | [12] > 100 µM | [13] > 100 µM | [14] > 100 µM

Cc1ccc(C2C(Cl)C(=O)N2n2cnc3ccccc3c2=O)cc1 (configuration not stated)
inactive: [1] > 100 µM | [2] > 100 µM | [15] > 100 µM | [3] 37.3 µM | [16] 42 µM | [5] > 100 µM | [6] 67.3 µM | [7] > 100 µM | [18] > 100 µM | [17] 29.6 µM | [8] > 100 µM | [9] > 100 µM | [11] 89.3 µM | [12] > 100 µM | [13] 52.2 µM | [14] > 100 µM

O=C(c1ccccc1)c1ccc2cccc(OC3OC(CO)C(O)C(O)C3O)c2n1 (configuration not stated)
inactive: [1] > 100 µM | [2] > 100 µM | [15] > 100 µM | [3] > 100 µM | [16] 54.7 µM | [5] > 100 µM | [7] > 100 µM | [18] 51.5 µM | [8] > 100 µM | [9] > 100 µM | [10] > 100 µM | [11] > 100 µM | [12] 73.6 µM | [13] > 100 µM | [14] > 100 µM

O=C(/C=C/C1C(=O)NC(=O)NC1=O)CC(=O)C(=O)Nc1cc(Cl)c(Cl)cc1Cl
inactive: [1] > 100 µM | [2] > 100 µM | [15] > 100 µM | [3] > 100 µM | [16] > 100 µM | [5] > 100 µM | [6] > 100 µM | [7] > 100 µM | [18] > 100 µM | [17] > 100 µM | [8] > 100 µM | [9] > 100 µM | [10] > 100 µM | [11] > 100 µM | [12] > 100 µM | [13] > 100 µM | [14] > 100 µM
